Results: BigSolDB 2.1

O=[N+]([O-])c1ncccc1O
solubility (mole fraction)
Conditions | in THF | in acetone | in acetonitrile | in ethanol | in ethyl acetate | in isopropanol | in methanol | in n-hexane | in n-propanol | in water
278.15 K | 0.213 | 0.157 | 0.113 | 0.0236 | 0.108 | 0.0158 | 0.0395 | 0.00055 | 0.0299 | 0.00083
283.15 K | 0.243 | 0.184 | 0.141 | 0.0334 | 0.128 | 0.0226 | 0.0551 | 0.00077 | 0.0391 | 0.00107
288.15 K | 0.274 | 0.219 | 0.171 | 0.0482 | 0.151 | 0.0318 | 0.0807 | 0.00105 | 0.0523 | 0.00149
293.15 K | 0.312 | 0.259 | 0.207 | 0.0653 | 0.181 | 0.0442 | 0.111 | 0.00144 | 0.0716 | 0.0021
298.15 K | 0.35 | 0.304 | 0.247 | 0.0924 | 0.215 | 0.0621 | 0.153 | 0.00192 | 0.0947 | 0.00283
303.15 K | 0.396 | 0.354 | 0.299 | 0.128 | 0.254 | 0.0863 | 0.206 | 0.00266 | 0.127 | 0.00393
308.15 K | 0.446 | 0.41 | 0.359 | 0.173 | 0.301 | 0.12 | 0.271 | 0.00373 | 0.17 | 0.00544
313.15 K | 0.502 | 0.474 | 0.428 | 0.232 | 0.357 | 0.165 | 0.352 | 0.00522 | 0.224 | 0.00753
318.15 K | 0.57 | 0.544 | 0.502 | 0.306 | 0.423 | 0.224 | 0.446 | 0.00736 | 0.292 | 0.0109
